Reference: a melting point compilation (Tetko et al.; mined from patent text by program, amines drawn as free bases though some values may be those of a salt)

Structure (SMILES)	melting point [°C]
O=[N+]([O-])c1ccc(OCC=CCBr)c([N+](=O)[O-])c1	55 to 57
CC(=O)OC1CSC(Oc2ccccc2-c2ccno2)C(OC(C)=O)C1OC(C)=O (stereo not drawn)	75
c1ccc(OCCSCc2nnc(-c3ccc(OCCCN4CCCC4)cc3)o2)cc1	70
O=c1[nH]c2cscc2c(=O)n1CCN1CCN(c2ccc(F)cc2)CC1	> 250
CCN(CC)C(=O)ON=C(C(=O)N(C)C)C(C)=NOC	59 to 61
CCOc1ccc([N+](=O)[O-])c(C)c1	41 to 43
CCOc1ccc(OCC)c(C=O)c1	60 to 61
O=C(Nc1cc(Cl)ccc1N1CCCCC1)c1ccncc1	141 to 143
CCCCCCCCCCCCCCCCCCOC[C@@H]1CO[C@@H](COC(=O)Nc2ccncc2)C1 (relative stereo)	118 to 123
CCCCCc1c(C=O)sc2cc(OC)ccc12	44 to 46
COc1ccc(F)cc1C(C)(C)CC(O)(Cc1ccc(C(=O)O)cc1)C(F)(F)F (stereo not drawn)	174 to 177
COc1cc(N2CCC(N3CCN(C)CC3)CC2)ccc1Nc1ncc2cc3ccccc3n2n1	176 to 179
NC(=O)c1ccn2c1CSC2c1cccnc1 (single isomer, unassigned; (+))	210
CCOCc1cc2cc(Cl)ccc2oc1=Nc1ccc(Br)cc1	119 to 121
CN1CCN(Cc2ccccc2Cl)C(C2=NCCO2)C1 (stereo not drawn)	96.8
CCCCCCNC(=O)[C@@H](NC(=O)OC(C)(C)C)C(C)C	74 to 76
CC(C)c1ccc2c(c1)c(S(=O)(=O)c1ccccc1)c(CC(C)(C)C(=O)O)n2Cc1ccc(N)cc1	290
CCCCCCCCCCCCCCCCc1c(O)c(CN(C)C(=O)Oc2cccc([N+](=O)[O-])c2)c(CCC)c(O)c1CN(C)C(=O)Oc1cccc([N+](=O)[O-])c1	89 to 95
Cc1nn(-c2c(Cl)cc(C(F)(F)F)cc2Cl)c(N)c1SC(Cl)(Cl)Cl	156
CN1C(=O)C(c2ccncc2)(c2cccc(O)c2)N=C1N (stereo not drawn)	245 to 247
O=[N+]([O-])c1cc(Cl)c(Oc2ccc(Cl)c3ccccc23)c(Cl)c1	145 to 147
CC(C)c1onc2c1c(=O)n(C)c(=O)n2C	106
O=C(O)C1=Cc2cc(Cl)c(Cl)cc2SC1C(F)(F)F (stereo not drawn)	262 to 264
Cc1ccc2ccc(N3C(=O)c4ccccc4C3OC(=O)CCCC(C)C)nc2n1 (stereo not drawn)	144

Structure (SMILES)	melting point [°C]
O=C1NC(=O)c2c1c1c3ccc(F)cc3[nH]c1c1c2c2ccc(F)cc2n1C1OC2COC(C2O)C1O (stereo not drawn)	> 300
COc1cc2c(c(OC(C)=O)c1)C1CCC3(C)C(=O)CCC3C1CC2 (stereo not drawn)	144 to 145
CCOC(=O)[C@@](C)(C#N)[C@@H](c1ccccc1OC)c1cccc2ccccc12	134 to 136
CCCc1c(OCCCCOc2ccc(Sc3ccccc3CC(=O)O)cc2)ccc(C(C)=O)c1O	76 to 78
COC(=O)c1ccncc1C(=O)c1ccc(-n2ccnc2)cc1	125 to 128
Cn1c(=O)c(=O)[nH]c2cc([N+](=O)[O-])c([N+](=O)[O-])cc21	370 to 380
CNC(=O)CCc1ccc(F)cc1F	90 to 91
CN1CCC(O)(c2ccc(F)cc2F)C1 (stereo not drawn)	117 to 119
COC(=O)OCC1OC(n2cc(C)c(=O)[nH]c2=O)C(OC(=O)c2cccc(C(F)(F)F)c2)C1OS(C)(=O)=O (stereo not drawn)	94 to 96
CCOC(=O)c1cc2c(C)c(-c3ccc(Cl)cc3)c(=O)oc2nc1C(=O)OCC	179 to 181
COc1ccc(C(=O)Nc2ccc(F)cc2)cc1NC(=S)Nc1ccc(C(=O)O)cc1	203 to 205
O=C(COC(=O)CCCc1ccc(N(CCCl)CCCl)cc1)NCCCC(O)(P(=O)(O)O)P(=O)(O)O	> 260
COc1c(C(=O)NC2CN3CCC2CC3)cc(Cl)c2c1CCCN2 (stereo not drawn)	105 to 108
N#CCCN1CCC(C2(c3ccc(F)cc3)OCCO2)CC1	107 to 109
C(=C\c1cc(/C=C/c2ccccc2OCc2ccccn2)[nH]n1)/c1ccc2cc[nH]c2c1	113 to 120
Clc1nc(OCc2ccccc2)c2[nH]cnc2n1	195 to 196
CC(=O)c1c([N+](=O)[O-])[nH]c(-c2ccncc2)c1C	187 to 188
COC(=O)C1C(c2ccccc2)OC(=O)N1C(c1ccccc1)c1ccccc1 (stereo not drawn)	99 to 102
O=C/C=C/C=C(c1ccccc1)c1ccccc1	71 to 72
Cn1cc(Br)nc(Nc2cnn(CCO[Si](C)(C)C(C)(C)C)c2)c1=O	172 to 173
COc1ccc(C(=C/C=C/C(=O)Oc2ccc([N+](=O)[O-])cc2)c2ccc(OC)cc2)cc1	121 to 123
Cn1c(CCCCN2CCN(c3cc(C(C)(C)C)nc(C(C)(C)C)n3)CC2)nnc1-c1ccccc1	144 to 145
Cc1ccc(-c2cc3c(n2-c2ccc(O)c(C(=O)O)c2)CCCC3)cc1	212 to 214
Cc1[nH]c(C#N)c(C)c1-c1ccnc(Nc2cccc([N+](=O)[O-])c2)n1	258 to 259
